Measurements: BindingDB's records for patent US10696638 (INDUSTRIAL TECHNOLOGY RESEARCH INSTITUTE, 2020)
pIC50: −log10 of the molar value.

Molecular target: Rho-associated protein kinase 2 (Homo sapiens, UniProt O75116)
Assay: ELISA Assay
Method: ROCK Substrate Coated Plate (Part No 241601): One strip well 96-well plate pre-coated with recombinant MYPT1.Buffer: 25 mM Tris, pH 7.5, 10 mM MgCl2, 5 mM Glycerol-2-Phosphate, 0.1 mM Na3VO4; 1% DMSO; 2.5 mM DTT; (Enzyme: ROCK active-II) (Cell Biolabs, Catalog #STA-406, Part No. 241505) 0.1 ng/μl.ATP Solution (Part No. 241604): 100 mM ATP. Final concentration of ATP in reaction mixture: 250 μM.Anti-phospho-MYPT1 (Thr696) (Part No. 241603).Secondary Antibody, HRP Conjugate (Part No. 231003).Biotinylated substrate, diluted to 0.25 μM with buffer described above (without ATP).Steps:1. Purified kinase or cell lysate sample can be used directly in the kinase assay or further diluted with 1× Kinase Buffer. Each sample should be assayed in duplicate.2. Add 90 μL of the diluted active ROCK-II positive control or unknown ROCK samples to the wells of the substrate plate.3. Initiate the kinase reaction by adding 10 μL of the 10× Kinase Reaction Buffer containing DTT and ATP. Mix well.4. Cover with a plate cover and incubate the wells at 30° C. for 30-60 minutes with gentle agitation.5. Stop kinase reaction by flicking out the content or by adding 50 μL of 0.5M EDTA, pH 8.0, to each well.6. Remove the plate cover and empty wells. Wash microwell strips 3 times with 250 μL 1× Wash Buffer per well with thorough aspiration between each wash. After the last wash, empty wells and tap microwell strips on absorbent pad or paper towel to remove excess 1× Wash Buffer.7. Add 100 μL of the diluted anti-phospho-MYPT1 (Thr696) antibody to each well.8. Cover with the plate cover and incubate at room temperature for 1 hour on an orbital shaker.9. Remove the plate cover and empty wells. Wash the strip wells 3 times according to step 6 above.10. Add 100 μL of the diluted HRP-conjugated secondary antibody to each well.11. Cover with the plate cover and incubate at room temperature for 1 hour on an orbital shaker.12. Remove the plate cover and empty wells. Wash microwell strips 3 times according to step 6 above. Proceed immediately to the next step.13. Warm Substrate Solution to room temperature. Add 100 μL of Substrate Solution to each well, including the blank wells. Incubate at room temperature for 5-20 minutes on an orbital shaker.14. Stop the enzyme reaction by adding 100 μL of Stop Solution into each well, including the blank wells. Results should be read immediately (color will fade over time).15. Read absorbance of each microwell on a spectrophotometer using 450 nm as the primary wave length.

Rho-associated protein kinase 2, sequence (O75116 whole entry): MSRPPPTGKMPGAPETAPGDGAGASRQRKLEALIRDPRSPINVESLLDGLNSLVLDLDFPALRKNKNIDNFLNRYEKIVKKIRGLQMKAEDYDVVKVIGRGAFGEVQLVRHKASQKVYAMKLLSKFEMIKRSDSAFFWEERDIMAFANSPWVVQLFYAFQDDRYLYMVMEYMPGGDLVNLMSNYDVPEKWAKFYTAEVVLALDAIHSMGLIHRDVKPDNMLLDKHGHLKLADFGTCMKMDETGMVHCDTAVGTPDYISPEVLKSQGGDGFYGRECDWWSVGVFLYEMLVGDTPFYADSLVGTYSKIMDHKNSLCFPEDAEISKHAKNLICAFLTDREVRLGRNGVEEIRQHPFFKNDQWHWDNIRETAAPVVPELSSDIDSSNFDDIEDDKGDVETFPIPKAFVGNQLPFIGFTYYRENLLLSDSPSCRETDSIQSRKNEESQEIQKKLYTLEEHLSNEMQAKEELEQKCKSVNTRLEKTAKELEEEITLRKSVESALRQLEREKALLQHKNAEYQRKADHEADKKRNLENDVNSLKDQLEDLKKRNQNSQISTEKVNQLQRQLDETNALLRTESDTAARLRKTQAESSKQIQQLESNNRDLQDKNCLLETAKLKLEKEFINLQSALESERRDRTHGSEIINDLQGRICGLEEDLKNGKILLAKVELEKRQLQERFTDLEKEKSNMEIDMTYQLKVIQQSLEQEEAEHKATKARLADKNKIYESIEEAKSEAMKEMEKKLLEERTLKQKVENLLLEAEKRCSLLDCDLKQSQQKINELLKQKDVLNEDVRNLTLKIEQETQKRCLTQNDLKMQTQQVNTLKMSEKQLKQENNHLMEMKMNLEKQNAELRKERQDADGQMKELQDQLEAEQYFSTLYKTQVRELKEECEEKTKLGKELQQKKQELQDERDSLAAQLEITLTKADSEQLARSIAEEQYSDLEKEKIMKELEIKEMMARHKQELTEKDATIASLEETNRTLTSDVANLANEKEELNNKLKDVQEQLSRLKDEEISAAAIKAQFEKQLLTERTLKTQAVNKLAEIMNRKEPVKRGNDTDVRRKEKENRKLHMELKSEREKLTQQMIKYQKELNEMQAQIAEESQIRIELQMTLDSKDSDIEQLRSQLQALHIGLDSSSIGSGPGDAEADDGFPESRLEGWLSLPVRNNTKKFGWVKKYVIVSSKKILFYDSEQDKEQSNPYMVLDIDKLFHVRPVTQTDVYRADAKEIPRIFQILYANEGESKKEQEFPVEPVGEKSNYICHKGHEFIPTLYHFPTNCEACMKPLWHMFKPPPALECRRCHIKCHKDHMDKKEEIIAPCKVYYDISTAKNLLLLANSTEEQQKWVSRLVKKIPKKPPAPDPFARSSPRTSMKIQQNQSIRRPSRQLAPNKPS

pIC50 | SMILES
< 6.00 | O=C(Nc1ccc2cnccc2c1)N[C@@H](CO)c1ccccc1 [US10696638, Table 1.6]
< 6.00 | O=C(Nc1cccc2cnccc12)N[C@@H](CO)c1ccccc1 [US10696638, formula (I) 4]

Second part, the molecule before the results:

SMILES | pIC50
CN(C)CCN(Cc1ccc(F)cc1)C(=O)Nc1ccc2cnccc2c1 [US10696638, Table 1.2] | < 6.00
CN(C)CCN(Cc1ccc(F)cc1)C(=O)Nc1cccc2cnccc12 [US10696638, formula (I) 5] | < 6.00
O=C(Nc1cccc2cnccc12)N(Cc1ccc(Cl)cc1)C1CCNCC1 [US10696638, formula (I) 9] | < 6.00
